In general, IC50 refers to the concentration needed to halve the response being measured. Higher therefore signals weaker potency. The Kd is a measure of binding affinity in units of concentration.

The target of one test is T1, RXR-α (Homo sapiens, UniProt P19793).
T1 construct: Eurofins Cerep (contract laboratory that ran the assay)
T1 sequence (P19793 1-462): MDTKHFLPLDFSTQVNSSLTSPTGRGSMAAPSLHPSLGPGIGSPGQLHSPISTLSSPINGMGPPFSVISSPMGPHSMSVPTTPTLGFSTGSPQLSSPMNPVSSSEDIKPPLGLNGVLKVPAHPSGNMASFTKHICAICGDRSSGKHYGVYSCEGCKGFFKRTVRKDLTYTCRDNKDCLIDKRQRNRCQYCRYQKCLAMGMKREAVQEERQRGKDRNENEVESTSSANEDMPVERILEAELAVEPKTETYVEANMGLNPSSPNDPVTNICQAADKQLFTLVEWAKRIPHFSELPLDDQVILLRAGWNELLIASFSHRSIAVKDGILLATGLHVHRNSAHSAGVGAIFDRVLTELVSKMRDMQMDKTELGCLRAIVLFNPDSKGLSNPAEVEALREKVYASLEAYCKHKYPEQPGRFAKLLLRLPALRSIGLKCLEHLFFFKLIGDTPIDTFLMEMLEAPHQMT
Put plainly: Competition binding to RXR-α against [3H]9-cis-retinoic acid (Eurofins Cerep). Conditions: for IC50 / Kd: competition with [3H]9-cis-retinoic acid. The method, then:
To confirm this hypothesis, we tested by competition experiments whether A2E and norbixin could bind to RXR-α. […] In similar transactivation experiments, we tested the activity of norbixin alone or added to A2E on RXR transactivation.
(§1) Binding studies of A2E and norbixin to RXR-α and PPAR-α and γ were performed in vitro by an external laboratory (Eurofins Cerep, Celle L’Evescault, France) through competition experiments between A2E or norbixin and [^3H]9-cis-retinoic acid as the natural ligand of RXR-α, [^3H]GW7647 an agonist of PPAR-α and [^3H]Rosiglitazone an agonist of PPAR-γ.

The subject of another test is AKT. The experiment in a line: AKT phosphorylation by western blot in primary porcine RPE cells. The format is cell-based. The method, then:
Pig eyes were obtained from a local slaughterhouse and transported to the laboratory in ice-cold Ringer solution. After removal of the anterior segment of the eye, the vitreous and neural retina was separated from the RPE and removed. The eyecup was washed twice with phosphate buffer saline (PBS), filled with trypsin (0.25% in PBS) and incubated at 37°C for 1.5 h. RPE cells were harvested by gently pipetting, centrifuged to remove trypsin and re-suspended in Dulbecco’s Modified Eagle Medium (DMEM) supplemented with 20% (v/v) foetal-calf serum (DMEM20%FCS) and 0.1% gentamycin. Cells were seeded into 60 mm diameter Petri dishes, cultured in an atmosphere of 5% CO2/95% air at 37°C, and supplied with fresh medium after 24 hours and 4 days in vitro. For experiments aimed at measuring mRNA or protein expression in RPE, cells were trypsinized after one week in culture and transferred to 24-well or 6-well plates at a density of 1.5 × 10^5 cells/cm^2 in DMEM2%FCS. […]
RPE samples were lysed in 20 mM Tris-HCl, 150 mM NaCl, 1 mM EDTA, 1% NP-40, pH 7.5 buffer containing a cocktail of protease and phosphatase inhibitors. […] The signal was developed using enhanced chemiluminescence reagents (ECL) prime detection kit, quantified by densitometry using Bio1D (Vilber Lourmat, Germany) and normalized by GAPDH levels. […]

A further test relates to IL-6. Put plainly: IL-6 mRNA expression by quantitative RT-PCR in porcine RPE cells. The format is cell-based. The conditions noted are these: T007907 10 μM. The method, then: Pig eyes were obtained from a local slaughterhouse and transported to the laboratory in ice-cold Ringer solution. After removal of the anterior segment of the eye, the vitreous and neural retina was separated from the RPE and removed. The eyecup was washed twice with phosphate buffer saline (PBS), filled with trypsin (0.25% in PBS) and incubated at 37°C for 1.5 h. RPE cells were harvested by gently pipetting, centrifuged to remove trypsin and re-suspended in Dulbecco’s Modified Eagle Medium (DMEM) supplemented with 20% (v/v) foetal-calf serum (DMEM20%FCS) and 0.1% gentamycin. Cells were seeded into 60 mm diameter Petri dishes, cultured in an atmosphere of 5% CO2/95% air at 37°C, and supplied with fresh medium after 24 hours and 4 days in vitro. For experiments aimed at measuring mRNA or protein expression in RPE, cells were trypsinized after one week in culture and transferred to 24-well or 6-well plates at a density of 1.5 × 10^5 cells/cm^2 in DMEM2%FCS. Norbixin or agonists were added to the medium 24 h after seeding, and antagonists were added to the medium 24 h later. A2E treatment was performed during 19 h before cellular sample preparation. All the drugs used in these experiments were prepared as stock solutions in DMSO.
Total RNA was extracted using the NucleoSpin® RNA kit according to manufacturer’s instructions. RT of 500 ng of RNA was performed using the SuperScript III Reverse Transcriptase following the manufacturer’s instructions. Five ng of cDNA were amplified using the SYBR GREEN real-time PCR method. PCR primers for target genes and housekeeping gene GAPDH were designed using Primer3Plus Bioinformatic software (Table 2). The RT-PCR using the StepOne Plus (Life Technologies, Carlsbad, CA, USA) consisted of incubation at 50°C for 5 min followed by 40 cycles of 95°C for 15 s and of 60°C for 1 min. The reaction was completed by a melt curve stage at 95°C for 15 s, 60°C for 1 min, 95°C for 15 s and a final step at 60°C for 15 s. The relative mRNA expression was calculated using the comparative threshold method (Ct-method) with GAPDH for normalization. All experimental conditions were processed in triplicate and each experiment was done at least 3 times.

The next test deals with T2, PPAR-γ (Homo sapiens, UniProt P37231).
T2 sequence (P37231 1-505): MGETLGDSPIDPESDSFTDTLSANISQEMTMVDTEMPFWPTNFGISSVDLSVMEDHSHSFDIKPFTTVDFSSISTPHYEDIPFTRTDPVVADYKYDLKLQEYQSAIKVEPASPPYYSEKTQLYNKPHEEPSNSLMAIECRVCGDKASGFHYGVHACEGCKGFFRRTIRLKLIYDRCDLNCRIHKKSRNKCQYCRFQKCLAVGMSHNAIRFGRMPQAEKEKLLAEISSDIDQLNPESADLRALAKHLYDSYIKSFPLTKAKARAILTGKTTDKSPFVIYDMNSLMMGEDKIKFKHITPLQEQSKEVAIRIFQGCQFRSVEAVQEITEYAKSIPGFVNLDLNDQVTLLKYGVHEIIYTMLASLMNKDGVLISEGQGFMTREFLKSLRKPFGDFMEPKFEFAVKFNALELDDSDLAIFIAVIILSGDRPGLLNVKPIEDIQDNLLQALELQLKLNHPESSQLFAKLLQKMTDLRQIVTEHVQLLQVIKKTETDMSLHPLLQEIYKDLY
The experiment in a line: Competition binding to PPAR-γ against [3H]rosiglitazone (Eurofins Cerep). Set-up: Eurofins Cerep (contract laboratory that ran the assay). The conditions noted are these: competition with [3H]rosiglitazone.
From the text: The binding and activity of norbixin on PPARs remains controversial, thus, firstly, we performed competition experiments in vitro between norbixin and [^3H] GW7647, an agonist of PPAR-α, and [^3H] rosiglitazone, an agonist of PPAR-γ. […] Secondly, we tested whether norbixin could induce the transactivation of PPAR-α, -β/δ or -γ in the context of RPE cells in vitro by co-transfecting porcine RPE cells with a plasmid expressing each of the full-length PPAR isoforms and a plasmid expressing luciferase under the control of the PPAR response element. […] Then, we wanted to determine if norbixin could modulate the transactivation of PPAR isoforms induced by specific agonists.
as §1

As to `CC(/C=C/C=C(C)/C=C/C(=O)O)=C\C=C\C=C(C)\C=C\C=C(C)\C=C\C(=O)O` (stereo in doubt) [norbixin, 9’-cis-norbixin], on RXR-α, the IC50 is 65 µM and the Kd was 46 µM. The “effect on the increase of AKT phosphorylation induced by A2E” value in the test with AKT (NBX 20 μM + A2E 30 μM) is recorded as “abrogated completely”. The “reduction of IL-6 mRNA expression induced by A2E” value with IL-6 (NBX 20 μM with A2E 30 μM, MK886 1 μM, GSK3787 1 μM, HX531 5 μM with A2E 20 μM) is 145%. Also, at PPAR-γ, the IC50 came out at 1.9 µM and the Kd stood at 1 µM.

In the case of `CC(C=CC1=C(C)CCCC1(C)C)=CC=CC(C)=Cc1cc(C=CC=C(C)C=CC2=C(C)CCCC2(C)C)cc[n+]1CCO` [A2E, N-retinylidene-N-retinylethanolamine], on RXR-α, the IC50 was determined as 6.1 µM and the Kd was found to be 4.3 µM. Further, on RXR-α (ratio of KDs), the “binding affinity of A2E for RXR-α relative to norbixin (higher)” value turned out to be 10 fold. For the same compound, the “effect of the compound alone on AKT phosphorylation” value in the test with AKT (A2E 30 μM vs DMSO control) is reported as “induced the phosphorylation”. Also, the “effect of the compound alone on IL-6 mRNA expression” value in the test on IL-6 (vs DMSO control) is listed as “induces the expression”. On PPAR-γ, this compound returned an IC50 of 25.5 µM and an equilibrium dissociation constant (Kd) of 14 µM.

Source of the values: article PMC8507260, “A2E-induced inflammation and angiogenesis in RPE cells in vitro are modulated by PPAR-α, -β/δ, -γ, and RXR antagonists and by norbixin” (Aging (Albany NY), 2021).
